The results in this text go back to patent EP4755889A1, “COMPOUND FOR DETECTING AMYLOID-BETA OLIGOMER AND METHOD FOR DIAGNOSING DEGENERATIVE BRAIN DISEASE USING SAME” (Amyloid Solution Inc., priority 2024, dated 2025).

The target in experiment [1] is T1, Aβ oligomer-albumin complex (Homo sapiens, UniProt P05067).
T1 construct: purchased Sigma-Aldrich (albumin)
Put plainly: Plate-immobilized Aβ oligomer-albumin complexes versus Aβ oligomers. To be noted: immobilized on a plate; IK15j (25 µM). In kind it is binding. Here is the method:
Full-length Aβ1-42 peptide was immobilized on a maleimide-activated microplate. Then, the plate was treated with additional Aβ1-42 peptide (10 µM) at 37°C for 8 hours. After peptide immobilization, unbound peptides were removed by washing three times with 200 µL of wash buffer. To form albumin-Aβ oligomer complexes, the plate was treated with albumin (10 µM, Sigma-Aldrich, USA) at room temperature for 24 hours, and unbound residues were removed by washing three times with 200 µL of wash buffer. The control Aβ oligomer wells were not treated with albumin. Each well was treated with the compound of the present disclosure (100 µM), and the signal of each sample was detected using a microplate reader (λex = 285 nm / λem = 475 nm).
Subsequently, both wells were treated with IK15j (25 µM), and the signals were compared (FIG. 9D).

Experiment [2] has as its system insoluble plaques in the 5XFAD mouse brain. Put plainly: Brain staining of AD mouse model with compound and anti-Aβ antibody 6E10. To be noted: 5XFAD brain sections; co-staining with 6E10. How it is done: Mouse brain tissues were fixed in 4 % paraformaldehyde (Biosesang, Korea) at 4 °C overnight and then cryoprotected by immersion in 30 % sucrose for 48 hours. Brain sections (25 µm) were cut using a cryostat (CM1860, Leica) and mounted on slides. The brain tissue sections were treated with the compound of the present disclosure (500 µM) overnight at room temperature. After washing with 1X PBS, antigen retrieval for the fixed brain sections was performed in 1X PBS (Gibco, Korea) containing 1 % SDS (Biosesang, Korea) for 10 minutes, followed by blocking with 20 % horse serum in 1X PBS. After blocking for 1 hour, the slides were incubated with mouse monoclonal antibody 6E10 (1:200, BioLegend, USA) at room temperature for 1 hour. […] After staining the cortical and hippocampal regions of the fixed brain, each brain slide was visualized using a fluorescence microscope (DM500, Leica) equipped with filter cubes containing excitation and emission filters: N2.1 filter cube for detecting 6E10 staining (Excitation filter: BP 515-560; Dichromatic mirror: 580; Emission filter: LP 590) and L5 filter cube for detecting the compound of the present disclosure (Excitation filter: BP 480/40; Dichromatic mirror: 505; Emission filter: BP 527/30). […]

A further experiment has as its target T2, Aβ oligomers (Homo sapiens, UniProt P05067).
T2 construct: Aβ1-42 peptide was aggregated at 37 °C for 8 hours
Put plainly: Detection of Aβ oligomers spiked into human plasma. To be noted: IK15j (100 µM) for 8 hours. In kind it is binding. Here is the method:
Aβ1-42 peptide (1,000, 100, 10, 1, 0.1, 0.01, and 0.001 pg/mL) was aggregated at 37 °C for 8 hours and added to human plasma (Sigma-Aldrich, USA). Then, each plasma sample was treated with the compound of the present disclosure (100 µM) for 8 hours at room temperature. The signal of each sample was detected using a microplate reader (λex = 285 nm / λem = 475 nm).
To investigate whether the compound of the present disclosure interacts with Aβ oligomers in plasma, Aβ oligomers were spiked into human plasma (at 100, 10, 1, 0.1, 0.01, 0.001, and 0 pg/mL) and treated with IK15j (100 µM) for 8 hours, as described in Reference Example 9.

A further experiment deals with T3, albumin (Homo sapiens, UniProt P02768).
T3 construct: purchased Sigma-Aldrich
Put plainly: Selectivity for blood proteins: albumin. To be noted: IK15j (25 µM). In kind it is binding. How it is done: Aβ1-42 peptide was aggregated at 37 °C for 8 hours, and 25 µM of Aβ1-42 oligomers, albumin (Sigma-Aldrich, USA), and fibrinogen (Sigma-Aldrich, USA) were seeded into a black microplate. Each sample was treated with IK15j (100 µM) for 8 hours at room temperature. The signal of each sample was detected using a microplate reader (λex = 285 nm / λem = 475 nm).
Excluding water, the solid components of plasma consist of coagulation factors and plasma proteins. Albumin is the most abundant protein in plasma, and fibrinogen is a major coagulation factor in plasma. Considering the possibility that fibrinogen or albumin might interact with AD diagnostic tools and interfere with compound selectivity, IK15j (25 µM) was incubated with Aβ1-42, albumin, or fibrinogen as described in Reference Example 10, and the fluorescence signal of each sample was measured to evaluate the selectivity of the compound of the present disclosure against these proteins.

A further experiment has as its target T4, Aβ oligomers (oAβ) (Homo sapiens, UniProt P05067).
T4 construct: Full-length and fragmented peptides of Aβ1-42 were individually dissolved in DMSO
Put plainly: Fluorescence on plate-immobilized Aβ monomers and oligomers. Format: binding. To be noted: mAβ and oAβ at 10 µM each immobilized on a plate; IK15j (100 µM) for 24 hours. How it is done: Briefly, to remove the bovine serum albumin coating from the plate, each well of the plate was washed three times with 200 µL of wash buffer (0.1 M sodium phosphate, 0.15 M sodium chloride, 0.05 % Tween-20, pH 7.2). Full-length and fragmented peptides of Aβ1-42 were individually dissolved in DMSO to prepare […] stock solutions, which were then diluted with binding buffer (0.1 M sodium phosphate, 0.15 M sodium chloride, 10 mM EDTA, pH 7.2) to prepare 50 µg/mL peptide solutions (5 % DMSO). 100 µL of the peptide solution was added to each well and allowed to react with the maleimide at room temperature overnight. After peptide immobilization, unbound peptides were removed by washing three times with 200 µL of wash buffer. […]
In addition, considering that EPPS might interfere with the interaction between IK15j and Aβ monomers, Aβ monomers and oligomers were immobilized on a plate according to the Aβ immobilization protocol of Reference Example 2, and then incubated with IK15j. Briefly, Aβ monomers (mAβ) and Aβ oligomers (oAβ) at 10 µM each were immobilized on a plate, treated with IK15j (100 µM) for 24 hours, and the fluorescence intensity was then measured; blank wells were treated with IK15j (100 µM) alone without immobilization of Aβ species.

T2 sequence (P05067 672-713): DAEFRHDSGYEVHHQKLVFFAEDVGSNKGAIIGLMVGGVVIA
T4 sequence (P05067 672-713): as above
T1 sequence (P05067 672-713, one chain of several): as the sequence (P05067 672-713) above
T3 sequence (P02768 25-609, species assumed): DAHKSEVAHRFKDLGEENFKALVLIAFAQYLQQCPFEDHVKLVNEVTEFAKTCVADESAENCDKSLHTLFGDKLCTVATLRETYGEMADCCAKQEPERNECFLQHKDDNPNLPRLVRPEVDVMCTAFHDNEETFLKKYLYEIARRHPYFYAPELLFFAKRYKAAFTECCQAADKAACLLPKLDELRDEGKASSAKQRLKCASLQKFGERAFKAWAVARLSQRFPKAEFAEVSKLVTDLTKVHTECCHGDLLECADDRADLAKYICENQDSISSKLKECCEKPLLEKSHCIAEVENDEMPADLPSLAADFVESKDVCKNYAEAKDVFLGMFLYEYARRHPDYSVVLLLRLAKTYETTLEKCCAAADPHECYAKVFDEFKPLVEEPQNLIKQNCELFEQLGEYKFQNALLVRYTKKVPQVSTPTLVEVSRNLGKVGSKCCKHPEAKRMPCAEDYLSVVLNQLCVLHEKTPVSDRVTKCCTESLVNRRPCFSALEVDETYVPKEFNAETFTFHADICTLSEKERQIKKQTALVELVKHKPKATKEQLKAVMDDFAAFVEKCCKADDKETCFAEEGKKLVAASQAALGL

Turning to `Cc1ccc2c(c1)c(-c1ccccc1)cn1c(C)cc(C#N)c21` [IK15j, 3,8-dimethyl-6-phenylpyrrolo[2,1-a]isoquinoline-1-carbonitrile], in experiment [1], the “fluorescence intensity, Aβ oligomer-albumin complex versus Aβ oligomers alone” value was “no significant difference in fluorescence intensity”. Moreover, in experiment [2], the “signal in hippocampal and cortical regions (brain staining)” value is “no signal”. Besides, at Aβ oligomers (1 pg/mL Aβ oligomers spiked), the “signal in spiked human plasma compared to blank human plasma (0 pg/mL)” value is given as “increased significantly”. Besides, the “increase in fluorescence intensity compared to the control” value at Aβ oligomers (10-100 pg/mL Aβ spiked human plasma samples) worked out at 52%. Further, the interaction with albumin result at albumin is given as “did not interact”. For the same compound, the “fluorescence signal with Aβ oligomers in contrast to Aβ monomers” value on Aβ oligomers (oAβ) was “markedly increased”.
